These results are taken from ChEMBL document CHEMBL1142345, “Synthesis and biological evaluation of alpha- and beta-6-amido derivatives of 17-cyclopropylmethyl-3, 14beta-dihydroxy-4, 5alpha-epoxymorphinan: potential alcohol-cessation agents” (J Med Chem, 2008).

For data set [1], the species on record is Homo sapiens. Put plainly: Selectivity ratio of Ki for human mu opioid receptor over Ki for human delta opioid receptor.
Data set [2] concerns the target T1, Mu-type opioid receptor (Homo sapiens, UniProt P35372). Put plainly: Displacement of [3H]DAMGO from human mu opioid receptor expressed in CHO cells. It is filed as cell-based. (Displacement assays read how much labelled ligand stays bound in the presence of the test substance.)
Data set [3] concerns the target T2, Delta-type opioid receptor (Homo sapiens, UniProt P41143). Put plainly: Activity at human delta opioid receptor by [35S]GTPgammaS binding assay. It is filed as functional.
Data set [4] addresses T1, Mu-type opioid receptor.
Description: Activity at human mu opioid receptor by [35S]GTPgammaS binding assay
Data set [5] is filed under the species Homo sapiens. Put plainly: Selectivity ratio of Ki for human mu opioid receptor over Ki for human kappa opioid receptor.
The target in data set [6] is T2, Delta-type opioid receptor. Put plainly: biochemical.
Description: Displacement of [3H]DPDPE from human delta opioid receptor expressed in CHO cells
Data set [7] concerns the target Kappa-type opioid receptor (Homo sapiens, UniProt P41145). Put plainly: Displacement of [3H]U69593 from human kappa opioid receptor expressed in CHO cells. It is filed as cell-based.
The target in another data set is CYP2D6 (Homo sapiens, UniProt P10635). Put plainly: in vitro.
Another data set concerns the target CYP3A4 (Homo sapiens, UniProt P08684). Put plainly: Inhibition of CYP3A4 at 10 uM. It counts as ADME.
A further data set has as its target CYP2C9 (Homo sapiens, UniProt P11712). Put plainly: Inhibition of CYP2C9 at 10 uM. It counts as ADME.
The target of a further data set is CYP2C19 (Homo sapiens, UniProt P33261). Put plainly: Inhibition of CYP2C19 at 10 uM. It is filed as ADME.
Data set [8] is described as follows: Metabolic stability assessed as half life in mouse liver microsomes at 40 uM. It counts as ADME, Microsome. A general note: Liver microsomes are vesicles of endoplasmic reticulum, rich in cytochrome P450 enzymes.
The species entered for the next data set is Rattus norvegicus. Put plainly: Inhibition of self alcohol consumption in rat using operant techniques. It is filed as functional.
The target in the next data set is T3, CYP2B6 (Homo sapiens, UniProt P20813).
T3 sequence (P20813 whole entry): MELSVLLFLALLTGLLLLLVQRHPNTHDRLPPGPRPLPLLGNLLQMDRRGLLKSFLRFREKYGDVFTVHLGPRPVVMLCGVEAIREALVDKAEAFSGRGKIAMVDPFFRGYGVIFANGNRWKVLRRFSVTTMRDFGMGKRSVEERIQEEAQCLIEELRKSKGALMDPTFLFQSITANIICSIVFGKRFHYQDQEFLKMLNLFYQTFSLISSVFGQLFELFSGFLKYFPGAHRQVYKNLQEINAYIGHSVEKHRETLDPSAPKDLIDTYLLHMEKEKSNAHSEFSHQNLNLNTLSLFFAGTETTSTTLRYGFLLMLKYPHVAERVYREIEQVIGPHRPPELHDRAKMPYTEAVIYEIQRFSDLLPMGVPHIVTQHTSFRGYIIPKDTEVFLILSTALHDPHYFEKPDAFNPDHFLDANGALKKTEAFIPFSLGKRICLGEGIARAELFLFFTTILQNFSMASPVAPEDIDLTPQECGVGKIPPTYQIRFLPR
Put plainly: Inhibition of CYP2B6 at 10 uM. It counts as ADME.

Data set [9] in a line: Metabolic stability assessed as half life in human liver S9 fraction at 40 uM. It is filed as ADME, subcellular.

T2 sequence (P41143 whole entry): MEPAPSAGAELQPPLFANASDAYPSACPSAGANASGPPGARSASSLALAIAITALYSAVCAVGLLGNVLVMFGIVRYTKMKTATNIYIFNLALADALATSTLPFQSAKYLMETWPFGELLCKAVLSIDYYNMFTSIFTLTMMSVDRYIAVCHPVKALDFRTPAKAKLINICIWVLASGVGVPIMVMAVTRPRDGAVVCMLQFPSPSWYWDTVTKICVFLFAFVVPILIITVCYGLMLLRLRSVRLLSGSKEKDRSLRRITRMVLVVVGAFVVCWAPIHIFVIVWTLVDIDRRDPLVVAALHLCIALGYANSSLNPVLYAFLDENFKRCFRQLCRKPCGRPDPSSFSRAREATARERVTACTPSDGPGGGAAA
Sequence of Kappa-type opioid receptor (P41145 whole entry): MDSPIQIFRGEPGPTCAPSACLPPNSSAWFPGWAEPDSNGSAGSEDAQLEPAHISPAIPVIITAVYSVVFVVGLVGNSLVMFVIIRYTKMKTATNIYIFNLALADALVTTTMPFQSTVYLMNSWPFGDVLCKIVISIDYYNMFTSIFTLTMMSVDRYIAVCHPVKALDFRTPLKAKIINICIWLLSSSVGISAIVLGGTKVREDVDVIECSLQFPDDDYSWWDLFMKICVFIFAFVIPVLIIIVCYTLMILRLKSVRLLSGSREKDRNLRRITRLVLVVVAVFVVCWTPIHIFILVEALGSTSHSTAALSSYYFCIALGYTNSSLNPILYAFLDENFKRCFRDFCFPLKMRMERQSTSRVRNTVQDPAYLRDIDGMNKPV
T1 sequence (P35372 whole entry): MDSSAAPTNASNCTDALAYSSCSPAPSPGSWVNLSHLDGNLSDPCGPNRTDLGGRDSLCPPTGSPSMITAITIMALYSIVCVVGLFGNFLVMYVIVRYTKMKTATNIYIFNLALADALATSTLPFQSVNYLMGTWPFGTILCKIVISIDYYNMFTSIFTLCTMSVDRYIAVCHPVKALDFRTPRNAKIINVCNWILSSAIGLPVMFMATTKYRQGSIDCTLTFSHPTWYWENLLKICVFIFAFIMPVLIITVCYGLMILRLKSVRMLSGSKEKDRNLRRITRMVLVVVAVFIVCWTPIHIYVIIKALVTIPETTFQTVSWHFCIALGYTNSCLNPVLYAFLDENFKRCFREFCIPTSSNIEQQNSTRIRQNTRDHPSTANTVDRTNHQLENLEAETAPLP
Sequence of CYP2C9 (P11712 whole entry): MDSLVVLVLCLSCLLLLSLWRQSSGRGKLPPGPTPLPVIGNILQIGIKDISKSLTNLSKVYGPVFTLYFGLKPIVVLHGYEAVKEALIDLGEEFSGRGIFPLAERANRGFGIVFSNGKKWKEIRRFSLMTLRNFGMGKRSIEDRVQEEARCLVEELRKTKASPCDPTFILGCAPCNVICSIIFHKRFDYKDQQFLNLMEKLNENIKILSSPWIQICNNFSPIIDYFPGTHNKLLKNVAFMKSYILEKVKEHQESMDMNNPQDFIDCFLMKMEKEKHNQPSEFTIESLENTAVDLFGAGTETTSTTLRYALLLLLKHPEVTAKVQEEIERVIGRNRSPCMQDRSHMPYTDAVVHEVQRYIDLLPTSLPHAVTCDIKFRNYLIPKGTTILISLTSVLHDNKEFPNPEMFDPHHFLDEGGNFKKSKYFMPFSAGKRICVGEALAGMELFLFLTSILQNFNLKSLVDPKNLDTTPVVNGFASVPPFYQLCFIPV
Sequence of CYP2C19 (P33261 whole entry): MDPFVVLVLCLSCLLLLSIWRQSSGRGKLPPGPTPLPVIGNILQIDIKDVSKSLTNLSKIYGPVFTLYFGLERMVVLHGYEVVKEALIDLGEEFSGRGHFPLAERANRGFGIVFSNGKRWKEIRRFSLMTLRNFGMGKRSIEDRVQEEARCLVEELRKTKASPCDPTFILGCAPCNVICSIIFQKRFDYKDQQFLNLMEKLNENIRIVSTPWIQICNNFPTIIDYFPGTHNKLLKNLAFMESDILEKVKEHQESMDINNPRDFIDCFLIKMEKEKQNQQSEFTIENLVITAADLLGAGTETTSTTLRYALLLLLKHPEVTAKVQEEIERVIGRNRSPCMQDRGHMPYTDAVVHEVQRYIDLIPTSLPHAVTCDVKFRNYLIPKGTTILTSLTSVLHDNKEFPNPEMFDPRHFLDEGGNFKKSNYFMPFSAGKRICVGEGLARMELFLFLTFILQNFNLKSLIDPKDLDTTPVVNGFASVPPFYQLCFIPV
Sequence of CYP3A4 (P08684 whole entry): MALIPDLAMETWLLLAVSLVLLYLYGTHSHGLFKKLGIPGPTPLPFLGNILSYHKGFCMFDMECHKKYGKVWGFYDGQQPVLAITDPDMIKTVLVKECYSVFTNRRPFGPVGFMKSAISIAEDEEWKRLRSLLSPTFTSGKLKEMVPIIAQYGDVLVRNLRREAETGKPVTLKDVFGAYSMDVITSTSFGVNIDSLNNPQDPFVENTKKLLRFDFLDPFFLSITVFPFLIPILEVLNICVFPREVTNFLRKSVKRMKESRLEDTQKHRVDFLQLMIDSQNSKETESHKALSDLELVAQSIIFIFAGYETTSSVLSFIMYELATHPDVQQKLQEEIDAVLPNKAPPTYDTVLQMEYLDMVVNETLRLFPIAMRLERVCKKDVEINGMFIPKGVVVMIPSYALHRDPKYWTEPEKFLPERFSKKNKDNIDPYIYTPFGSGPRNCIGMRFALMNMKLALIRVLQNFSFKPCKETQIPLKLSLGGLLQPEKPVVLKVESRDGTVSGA
Sequence of CYP2D6 (P10635 whole entry): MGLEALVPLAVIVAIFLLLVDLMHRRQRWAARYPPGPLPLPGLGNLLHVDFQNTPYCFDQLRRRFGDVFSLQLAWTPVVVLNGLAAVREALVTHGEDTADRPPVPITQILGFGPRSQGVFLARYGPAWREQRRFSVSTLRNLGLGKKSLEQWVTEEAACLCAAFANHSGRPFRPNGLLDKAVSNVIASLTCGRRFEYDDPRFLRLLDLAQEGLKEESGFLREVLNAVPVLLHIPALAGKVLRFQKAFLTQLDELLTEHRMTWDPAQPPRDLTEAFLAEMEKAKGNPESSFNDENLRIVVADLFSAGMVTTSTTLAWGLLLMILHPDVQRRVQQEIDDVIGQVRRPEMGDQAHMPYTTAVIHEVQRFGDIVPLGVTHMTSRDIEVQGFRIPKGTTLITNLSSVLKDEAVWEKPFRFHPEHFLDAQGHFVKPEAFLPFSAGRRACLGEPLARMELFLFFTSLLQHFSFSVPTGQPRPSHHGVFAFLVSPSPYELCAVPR
Description for CYP2D6: Inhibition of CYP2D6 at 10 uM

In the case of `O=C(C[C@@H]1O[C@H](COCc2ccccc2)[C@@H](OCc2ccccc2)[C@H](OCc2ccccc2)[C@H]1OCc1ccccc1)N[C@H]1CC[C@@]2(O)[C@H]3Cc4ccc(O)c5c4[C@@]2(CCN3CC2CC2)[C@H]1O5`, the Ratio Ki was determined as 16.5 in the data set filed under Homo sapiens [1] and 0.34 in the data set listed under Homo sapiens [5]. Also, the figures for the Ki (on Mu-type opioid receptor [2]; in data set [6]; in [7]) were 1.49 nM, 24.5 nM and 0.51 nM, respectively. Besides, the Ke in [3] came out at 10.3 nM; at Mu-type opioid receptor [4] it was 0.16 nM.
For the compound `O=C(N[C@@H]1CC[C@@]2(O)[C@H]3Cc4ccc(O)c5c4[C@@]2(CCN3CC2CC2)[C@H]1O5)c1cccc([N+](=O)[O-])c1`, the Ki – broadly, a dissociation constant, usually derived from enzyme kinetics or from competition with a known ligand – worked out at 0.19 nM at Mu-type opioid receptor [2] and 0.28 nM in data set [7].
On to `O=C(Cc1cccs1)N[C@H]1CC[C@@]2(O)[C@H]3Cc4ccc(O)c5c4[C@@]2(CCN3CC2CC2)[C@H]1O5`, for which the Ratio Ki in the data set listed under Homo sapiens [1] was 5.5; in the data set filed under Homo sapiens [5], 7.2. The Ki on Mu-type opioid receptor [2] is 0.38 nM; in data set [6] it was 2.07 nM; in data set [7], 2.74 nM.
Consider `O=C(C[C@@H]1O[C@H](CO)[C@@H](O)[C@H](O)[C@H]1O)N[C@@H]1CC[C@@]2(O)[C@H]3Cc4ccc(O)c5c4[C@@]2(CCN3CC2CC2)[C@H]1O5`, for which the Ratio Ki in the data set listed under Homo sapiens [1] was found to be 150; in the data set listed under Homo sapiens [5], 7. Moreover, the results for the Ki (on Mu-type opioid receptor [2]; in [6]; in data set [7]) were 0.64 nM, 99 nM and 4.5 nM, respectively. At Mu-type opioid receptor [4], this compound displayed a Ke of 0.37 nM.
`O=C(N[C@@H]1CC[C@@]2(O)[C@H]3Cc4ccc(O)c5c4[C@@]2(CCN3CC2CC2)[C@H]1O5)c1ccccc1`: the results for the Ki (at Mu-type opioid receptor [2]; in data set [7]) were 0.18 nM and 0.16 nM, respectively.
As for `O=C(N[C@@H]1CC[C@@]2(O)[C@H]3Cc4ccc(O)c5c4[C@@]2(CCN3CC2CC2)[C@H]1O5)c1ccc(Cl)cc1`, the inhibition (commonly how much of the control response was suppressed) at 10 µM against CYP2D6 is 4.7%; against CYP3A4, 30.8%; against CYP2C9 it was 28.1%; on CYP2C19 it was 39.1%; on CYP2B6 it was 7%. In addition, the half-life – broadly, the time needed for the level to fall by half in the phase considered – at 40 µM in data set [8] was determined as 255 min. Further, the ED50 (as a rule, the midpoint of the dose-response relation) in the data set filed under Rattus norvegicus was determined as 0.5 mg/kg.
Take `O=C(/C=C/Cc1ccccc1)N[C@@H]1CC[C@@]2(O)[C@H]3Cc4ccc(O)c5c4[C@@]2(CCN3CC2CC2)[C@H]1O5`: the Ratio Ki in the data set filed under Homo sapiens [1] came out at 100; in the data set listed under Homo sapiens [5], 20. The Ki is 0.06 nM at Mu-type opioid receptor [2], 8.22 nM in data set [6] and 0.91 nM in [7].
On to `COc1cccc(CC(=O)N[C@@H]2CC[C@@]3(O)[C@H]4Cc5ccc(O)c6c5[C@@]3(CCN4CC3CC3)[C@H]2O6)c1`, for which the values for the Ratio Ki in the data set listed under Homo sapiens [1] and in the data set filed under Homo sapiens [5] were 120 and 3.5, respectively. Besides, the Ki on Mu-type opioid receptor [2] was 0.13 nM; in data set [6], 15.8 nM; in data set [7] it was 0.45 nM.
Taken in the same sequence, the figures for `O=C(O)c1ccc(C(=O)N[C@@H]2CC[C@@]3(O)[C@H]4Cc5ccc(O)c6c5[C@@]3(CCN4CC3CC3)[C@H]2O6)cc1` were 7860, 14.9, 10.1 nM, 79.2 nM and 151 nM.
The corresponding values for `CC(C)(C)OC(=O)Nc1ccc(C(=O)N[C@@H]2CC[C@@]3(O)[C@H]4Cc5ccc(O)c6c5[C@@]3(CCN4CC3CC3)[C@H]2O6)cc1` are 28, 0.86, 0.92 nM, 25.3 nM and 0.79 nM.
For `O=C(Cc1cccs1)N[C@@H]1CC[C@@]2(O)[C@H]3Cc4ccc(O)c5c4[C@@]2(CCN3CC2CC2)[C@H]1O5`, the figures for the Ratio Ki in the data set listed under Homo sapiens [1] and in the data set filed under Homo sapiens [5] were 75 and 2.8, respectively. Moreover, the Ki was 0.43 nM at Mu-type opioid receptor [2], 32.4 nM in [6] and 1.2 nM in data set [7]. This compound also had a Ke on Mu-type opioid receptor [4] of 0.41 nM.
Take `COC(=O)c1ccc(C(=O)N[C@@H]2CC[C@@]3(O)[C@H]4Cc5ccc(O)c6c5[C@@]3(CCN4CC3CC3)[C@H]2O6)cc1`: the Ratio Ki came to 130 in the data set filed under Homo sapiens [1] and 3.5 in the data set listed under Homo sapiens [5]. Also, the inhibition constant (Ki) on Mu-type opioid receptor [2] was determined as 0.21 nM; in data set [6], 27.2 nM; in [7], 0.73 nM.
In the case of `O=C(C[C@@H]1O[C@H](CO)[C@@H](O)[C@H](O)[C@H]1O)N[C@H]1CC[C@@]2(O)[C@H]3Cc4ccc(O)c5c4[C@@]2(CCN3CC2CC2)[C@H]1O5`, the Ratio Ki was found to be 55 in the data set filed under Homo sapiens [1] and 3 in the data set listed under Homo sapiens [5]. Besides, the Ki is 0.67 nM at Mu-type opioid receptor [2], 36.9 nM in data set [6] and 2.03 nM in data set [7].
The corresponding values for `O=C(Cc1ccccc1)N[C@@H]1CC[C@@]2(O)[C@H]3Cc4ccc(O)c5c4[C@@]2(CCN3CC2CC2)[C@H]1O5` are 180, 2.7, 0.16 nM, 28 nM and 0.43 nM.
Regarding `COc1ccc(CC(=O)N[C@@H]2CC[C@@]3(O)[C@H]4Cc5ccc(O)c6c5[C@@]3(CCN4CC3CC3)[C@H]2O6)cc1`, the Ratio Ki was 74 in the data set filed under Homo sapiens [1] and 1.6 in the data set filed under Homo sapiens [5]. For the same compound, the Ki at Mu-type opioid receptor [2] was determined as 0.27 nM; in [6], 19.9 nM; in [7], 0.42 nM.
In the case of `COc1cccc(C(=O)N[C@H]2CC[C@@]3(O)[C@H]4Cc5ccc(O)c6c5[C@@]3(CCN4CC3CC3)[C@H]2O6)c1`, the figures for the Ratio Ki in the data set filed under Homo sapiens [1] and in the data set filed under Homo sapiens [5] were 36 and 4.5, respectively. The inhibition constant (Ki) came to 0.16 nM at Mu-type opioid receptor [2], 5.82 nM in data set [6] and 0.72 nM in [7]. Moreover, in data set [8], the half-life at 40 µM turned out to be 49 min.
On to `O=C(N[C@@H]1CC[C@@]2(O)[C@H]3Cc4ccc(O)c5c4[C@@]2(CCN3CC2CC2)[C@H]1O5)c1ccccn1`, for which the Ratio Ki was determined as 180 in the data set listed under Homo sapiens [1] and 1.3 in the data set filed under Homo sapiens [5]. Also, the Ki at Mu-type opioid receptor [2] worked out at 0.31 nM; in data set [6] it was 56.3 nM; in data set [7], 0.39 nM.
For the compound `O=C(CCc1ccccc1)N[C@@H]1CC[C@@]2(O)[C@H]3Cc4ccc(O)c5c4[C@@]2(CCN3CC2CC2)[C@H]1O5`, the Ratio Ki in the data set listed under Homo sapiens [1] was found to be 100; in the data set filed under Homo sapiens [5], 0.8. Besides, the Ki on Mu-type opioid receptor [2] was 0.12 nM; in [6], 12.2 nM; in data set [7] it was 0.09 nM. Also, on Mu-type opioid receptor [4], the Ke is 0.15 nM.
In the case of `C=C1CC[C@@]2(O)[C@H]3Cc4ccc(O)c5c4[C@@]2(CCN3CC2CC2)[C@H]1O5`, at CYP2C9, 10 µM produced 35.5% inhibition. Besides, the half-life at 40 µM in data set [9] and in data set [8] was 20 min each time. In addition, the ED50 in the data set filed under Rattus norvegicus turned out to be 0.04 mg/kg.
On to `Nc1ccc(C(=O)N[C@@H]2CC[C@@]3(O)[C@H]4Cc5ccc(O)c6c5[C@@]3(CCN4CC3CC3)[C@H]2O6)cc1`, for which the values for the Ratio Ki in the data set listed under Homo sapiens [1] and in the data set listed under Homo sapiens [5] were 85 and 0.93, respectively. In addition, the values for the Ki (at Mu-type opioid receptor [2]; in data set [6]; in data set [7]) were 0.43 nM, 36.5 nM and 0.4 nM, respectively.
For the compound `O=C(N[C@H]1CC[C@@]2(O)[C@H]3Cc4ccc(O)c5c4[C@@]2(CCN3CC2CC2)[C@H]1O5)c1ccccc1`, the Ki on Mu-type opioid receptor [2] is 0.21 nM; in data set [7], 0.78 nM.
For `COc1cc(OC)cc(C(=O)N[C@@H]2CC[C@@]3(O)[C@H]4Cc5ccc(O)c6c5[C@@]3(CCN4CC3CC3)[C@H]2O6)c1`, the figures for the Ratio Ki in the data set filed under Homo sapiens [1] and in the data set listed under Homo sapiens [5] were 68 and 1.1, respectively. Further, the Ki on Mu-type opioid receptor [2] worked out at 0.26 nM; in data set [6] it was 17.6 nM; in [7], 0.29 nM.
As to `COc1cc(OC)cc(C(=O)N[C@H]2CC[C@@]3(O)[C@H]4Cc5ccc(O)c6c5[C@@]3(CCN4CC3CC3)[C@H]2O6)c1`, the Ratio Ki in the data set filed under Homo sapiens [1] was found to be 36; in the data set filed under Homo sapiens [5] it was 13. Further, the results for the Ki (on Mu-type opioid receptor [2]; in [6]; in data set [7]) were 0.19 nM, 6.83 nM and 2.41 nM, respectively.
In the case of `O=C(N[C@@H]1CC[C@@]2(O)[C@H]3Cc4ccc(O)c5c4[C@@]2(CCN3CC2CC2)[C@H]1O5)c1cccc(O)c1`, the Ratio Ki is 21 in the data set filed under Homo sapiens [1] and 0.5 in the data set listed under Homo sapiens [5]. Further, the Ki came out at 0.13 nM on Mu-type opioid receptor [2], 2.73 nM in data set [6] and 0.06 nM in data set [7].
